What is called EC50 is the concentration needed to bring the measured effect to its halfway point. Read a low EC50 as greater potency.

Here are results for three molecules from ChEMBL document CHEMBL1134758, “New probes of the agonist binding site of metabotropic glutamate receptors” (Bioorg Med Chem Lett, 2001).

For test [1], the target named is Metabotropic glutamate receptor 2 (Rattus norvegicus) (UniProt P31421). The experiment in a line: (§1) Maximal effect obtained with 1 mM of the drug expressed as percent of maxiaml effect of glutamate in rat at mGlu2 receptor expressed in HEK293 cells. It counts as cell-based.
Test [2] concerns the target T1, Metabotropic glutamate receptor 8 (Rattus norvegicus, UniProt P70579). The experiment in a line: Agonist activity in rat at mGlu8a receptor expressed in HEK293 cells. The test is classed as functional, cell-based.
In test [3] the target is Metabotropic glutamate receptor 8 (Rattus norvegicus) (UniProt P70579). The experiment in a line: Maximal effect obtained with 1 mM of the drug expressed as percent of maxiaml effect of glutamate in rat at mGlu8a receptor expressed in HEK293 cells. The test is classed as functional, cell-based.
For test [4], the target named is Metabotropic glutamate receptor 1 (Rattus norvegicus) (UniProt P23385). The experiment in a line: Maximal effect obtained with 1 mM of the drug expressed as percent of maxiaml effect of glutamate in rat at mGlu1a receptor expressed in HEK293 cells. The test is classed as functional, cell-based.
Test [5] concerns the target Metabotropic glutamate receptor 2 (Rattus norvegicus, UniProt P31421). The experiment in a line: Agonist activity in rat at mGlu2 receptor expressed in HEK293 cells. The test is classed as functional, cell-based.
The target of test [6] is Metabotropic glutamate receptor 1 (Rattus norvegicus, UniProt P23385). The experiment in a line: Agonist activity in rat at mGlu1a receptor expressed in HEK293 cells. The test is classed as functional, cell-based.
Test [7] addresses T1, Metabotropic glutamate receptor 8. The experiment in a line: Agonist activity in rat at Metabotropic glutamate receptor 8 expressed in HEK293 cells. The test is classed as functional, cell-based.
Test [8] concerns the target Metabotropic glutamate receptor 2 (Rattus norvegicus) (UniProt P31421). Described as §1. It counts as functional, cell-based.

T1 sequence (P70579 whole entry): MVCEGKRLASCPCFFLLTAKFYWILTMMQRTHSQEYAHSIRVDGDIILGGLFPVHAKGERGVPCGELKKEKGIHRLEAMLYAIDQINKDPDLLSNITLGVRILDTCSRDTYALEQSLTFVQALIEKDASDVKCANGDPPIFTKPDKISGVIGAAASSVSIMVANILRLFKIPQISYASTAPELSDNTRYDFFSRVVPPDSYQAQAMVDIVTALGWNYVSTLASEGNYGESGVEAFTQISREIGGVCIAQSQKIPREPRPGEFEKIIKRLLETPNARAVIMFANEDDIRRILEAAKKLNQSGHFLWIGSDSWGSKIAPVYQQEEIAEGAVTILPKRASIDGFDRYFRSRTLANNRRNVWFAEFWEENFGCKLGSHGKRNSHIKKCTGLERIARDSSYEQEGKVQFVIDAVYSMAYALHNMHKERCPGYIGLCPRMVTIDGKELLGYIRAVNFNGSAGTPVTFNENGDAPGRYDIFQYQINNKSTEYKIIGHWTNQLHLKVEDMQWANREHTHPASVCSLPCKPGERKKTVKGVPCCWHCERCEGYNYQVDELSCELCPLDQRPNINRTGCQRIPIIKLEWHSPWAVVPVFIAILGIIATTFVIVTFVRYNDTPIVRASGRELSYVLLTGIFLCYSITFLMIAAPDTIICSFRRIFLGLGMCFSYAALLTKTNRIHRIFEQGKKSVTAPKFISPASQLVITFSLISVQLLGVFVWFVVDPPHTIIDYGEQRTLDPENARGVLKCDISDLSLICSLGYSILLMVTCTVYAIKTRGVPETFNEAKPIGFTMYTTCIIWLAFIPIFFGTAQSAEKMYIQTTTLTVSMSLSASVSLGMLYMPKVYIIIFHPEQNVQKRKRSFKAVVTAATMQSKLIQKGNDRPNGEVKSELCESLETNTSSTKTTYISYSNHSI
Chain of Metabotropic glutamate receptor 2 (P31421 whole entry): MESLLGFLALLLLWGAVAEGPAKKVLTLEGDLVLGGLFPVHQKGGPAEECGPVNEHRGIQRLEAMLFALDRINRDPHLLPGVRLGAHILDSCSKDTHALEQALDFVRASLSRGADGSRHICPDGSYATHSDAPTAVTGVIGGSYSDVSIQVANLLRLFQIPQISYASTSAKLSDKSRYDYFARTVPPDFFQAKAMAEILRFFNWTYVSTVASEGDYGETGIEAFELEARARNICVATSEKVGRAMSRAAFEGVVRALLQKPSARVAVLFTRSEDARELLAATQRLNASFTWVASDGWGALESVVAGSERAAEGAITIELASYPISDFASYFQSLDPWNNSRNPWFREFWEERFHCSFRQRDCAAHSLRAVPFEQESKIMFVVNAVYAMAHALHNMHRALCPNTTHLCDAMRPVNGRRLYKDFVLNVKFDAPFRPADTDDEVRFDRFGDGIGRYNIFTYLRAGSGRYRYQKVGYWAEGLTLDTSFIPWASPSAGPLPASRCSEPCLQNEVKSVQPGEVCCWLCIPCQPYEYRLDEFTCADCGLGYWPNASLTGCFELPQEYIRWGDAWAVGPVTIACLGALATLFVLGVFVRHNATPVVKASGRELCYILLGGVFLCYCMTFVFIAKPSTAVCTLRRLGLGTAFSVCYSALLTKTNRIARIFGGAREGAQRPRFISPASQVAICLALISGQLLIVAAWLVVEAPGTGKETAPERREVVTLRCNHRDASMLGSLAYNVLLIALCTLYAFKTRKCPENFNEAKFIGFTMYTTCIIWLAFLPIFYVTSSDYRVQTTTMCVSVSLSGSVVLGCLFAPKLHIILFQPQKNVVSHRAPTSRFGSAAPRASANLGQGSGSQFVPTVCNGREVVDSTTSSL
Chain of Metabotropic glutamate receptor 8 (Rattus norvegicus) (P70579 whole entry): as the sequence (P70579 whole entry) above
Chain of Metabotropic glutamate receptor 1 (P23385 whole entry): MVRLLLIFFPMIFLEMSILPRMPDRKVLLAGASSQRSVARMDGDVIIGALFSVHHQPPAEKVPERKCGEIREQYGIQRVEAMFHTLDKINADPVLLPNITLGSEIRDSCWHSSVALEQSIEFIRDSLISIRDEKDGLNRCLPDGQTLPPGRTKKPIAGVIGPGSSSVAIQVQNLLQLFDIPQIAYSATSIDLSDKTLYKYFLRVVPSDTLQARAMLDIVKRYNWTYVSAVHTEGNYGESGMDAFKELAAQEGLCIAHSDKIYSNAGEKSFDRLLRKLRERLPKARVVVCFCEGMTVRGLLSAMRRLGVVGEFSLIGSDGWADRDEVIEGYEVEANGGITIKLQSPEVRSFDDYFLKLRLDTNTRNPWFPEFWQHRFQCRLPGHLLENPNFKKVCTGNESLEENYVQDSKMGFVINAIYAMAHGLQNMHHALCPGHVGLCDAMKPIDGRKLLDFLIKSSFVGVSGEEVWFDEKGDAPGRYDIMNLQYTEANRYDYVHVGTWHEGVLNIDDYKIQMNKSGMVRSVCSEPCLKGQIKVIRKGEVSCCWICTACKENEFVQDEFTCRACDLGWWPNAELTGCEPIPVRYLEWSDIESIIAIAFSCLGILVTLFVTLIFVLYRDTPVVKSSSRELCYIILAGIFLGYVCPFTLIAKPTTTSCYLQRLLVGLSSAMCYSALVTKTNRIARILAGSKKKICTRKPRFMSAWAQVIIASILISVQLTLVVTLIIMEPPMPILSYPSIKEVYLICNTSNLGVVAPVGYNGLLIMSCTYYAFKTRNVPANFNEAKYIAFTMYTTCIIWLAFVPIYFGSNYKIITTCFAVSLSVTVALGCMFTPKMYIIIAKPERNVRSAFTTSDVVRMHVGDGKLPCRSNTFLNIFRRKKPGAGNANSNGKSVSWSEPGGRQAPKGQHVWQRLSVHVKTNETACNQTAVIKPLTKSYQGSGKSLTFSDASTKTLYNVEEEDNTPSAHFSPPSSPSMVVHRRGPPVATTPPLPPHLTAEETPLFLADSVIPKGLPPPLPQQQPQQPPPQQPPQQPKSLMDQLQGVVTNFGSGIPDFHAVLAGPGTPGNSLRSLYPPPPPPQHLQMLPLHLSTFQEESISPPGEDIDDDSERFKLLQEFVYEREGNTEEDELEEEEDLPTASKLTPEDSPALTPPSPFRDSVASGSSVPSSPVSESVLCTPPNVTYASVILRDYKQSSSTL
Chain of Metabotropic glutamate receptor 2 (Rattus norvegicus) (P31421 19-872 limits assumed): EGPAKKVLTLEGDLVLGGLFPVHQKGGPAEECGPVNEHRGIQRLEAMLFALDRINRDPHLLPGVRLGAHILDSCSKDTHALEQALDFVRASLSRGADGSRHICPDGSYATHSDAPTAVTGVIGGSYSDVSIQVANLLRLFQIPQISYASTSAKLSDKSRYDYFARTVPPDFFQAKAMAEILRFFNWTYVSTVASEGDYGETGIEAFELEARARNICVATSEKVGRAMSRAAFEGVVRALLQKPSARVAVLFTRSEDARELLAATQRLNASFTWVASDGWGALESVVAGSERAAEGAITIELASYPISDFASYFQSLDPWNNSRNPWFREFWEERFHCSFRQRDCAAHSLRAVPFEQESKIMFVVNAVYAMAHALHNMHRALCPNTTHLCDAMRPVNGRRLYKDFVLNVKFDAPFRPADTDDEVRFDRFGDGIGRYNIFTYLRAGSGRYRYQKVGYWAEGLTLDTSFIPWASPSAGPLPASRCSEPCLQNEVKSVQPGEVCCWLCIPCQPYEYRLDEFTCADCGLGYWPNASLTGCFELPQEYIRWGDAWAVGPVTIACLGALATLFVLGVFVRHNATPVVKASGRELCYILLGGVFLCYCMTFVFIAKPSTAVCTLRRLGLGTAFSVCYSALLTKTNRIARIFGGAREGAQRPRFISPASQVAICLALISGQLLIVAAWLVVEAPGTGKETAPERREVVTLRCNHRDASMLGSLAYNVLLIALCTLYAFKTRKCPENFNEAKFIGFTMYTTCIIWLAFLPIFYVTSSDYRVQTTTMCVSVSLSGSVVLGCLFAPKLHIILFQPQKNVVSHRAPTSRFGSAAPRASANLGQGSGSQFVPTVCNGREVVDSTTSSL
Chain of Metabotropic glutamate receptor 1 (Rattus norvegicus) (P23385 19-1199 limits assumed): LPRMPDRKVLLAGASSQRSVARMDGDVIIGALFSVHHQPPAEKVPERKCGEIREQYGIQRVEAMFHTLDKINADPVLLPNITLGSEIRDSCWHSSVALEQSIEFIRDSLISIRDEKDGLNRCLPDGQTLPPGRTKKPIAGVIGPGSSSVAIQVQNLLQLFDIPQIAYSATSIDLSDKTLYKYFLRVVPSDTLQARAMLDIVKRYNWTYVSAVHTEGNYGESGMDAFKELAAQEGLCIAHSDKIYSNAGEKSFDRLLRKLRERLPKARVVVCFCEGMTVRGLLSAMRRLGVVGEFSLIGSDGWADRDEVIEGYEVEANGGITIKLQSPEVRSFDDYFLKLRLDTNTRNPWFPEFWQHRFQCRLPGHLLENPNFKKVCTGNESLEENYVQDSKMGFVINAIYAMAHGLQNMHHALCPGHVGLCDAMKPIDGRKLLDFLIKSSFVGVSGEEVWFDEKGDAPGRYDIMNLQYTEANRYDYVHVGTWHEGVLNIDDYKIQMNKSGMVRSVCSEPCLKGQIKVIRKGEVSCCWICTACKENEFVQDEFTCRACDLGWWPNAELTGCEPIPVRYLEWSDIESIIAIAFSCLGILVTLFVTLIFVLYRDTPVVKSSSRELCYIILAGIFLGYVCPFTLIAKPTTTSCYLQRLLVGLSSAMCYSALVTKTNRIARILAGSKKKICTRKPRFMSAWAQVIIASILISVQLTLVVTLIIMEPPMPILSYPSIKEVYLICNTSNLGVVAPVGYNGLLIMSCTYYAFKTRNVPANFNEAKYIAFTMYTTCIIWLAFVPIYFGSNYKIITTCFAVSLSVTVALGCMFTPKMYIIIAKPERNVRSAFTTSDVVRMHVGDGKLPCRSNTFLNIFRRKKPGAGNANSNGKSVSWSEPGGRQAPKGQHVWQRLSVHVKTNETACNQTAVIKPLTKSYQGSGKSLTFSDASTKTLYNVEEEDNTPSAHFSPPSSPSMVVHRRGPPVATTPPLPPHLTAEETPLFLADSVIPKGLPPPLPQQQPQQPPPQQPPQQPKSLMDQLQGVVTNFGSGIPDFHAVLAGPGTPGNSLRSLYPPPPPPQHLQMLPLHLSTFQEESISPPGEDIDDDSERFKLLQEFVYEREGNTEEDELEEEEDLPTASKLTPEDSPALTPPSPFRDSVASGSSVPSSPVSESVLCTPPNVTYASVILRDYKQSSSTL

For the molecule `N[C@@H](C[C@@H](O)C(=O)O)C(=O)O`, the Rmax in test [1] is 52%; in test [3] it was 54%; in test [4], 70%. Further, the EC50 in test [2] worked out at 69 µM; in test [5], 161 µM; in test [6], 373 µM.

Turning to `N[C@@H](CCC(=O)O)C(=O)O` [GLUTAMIC ACID], a half-maximal response in test [7] (EC50) required 8 µM.

In the case of `N[C@@H](C[C@H](O)C(=O)O)C(=O)O`, the Rmax in test [8] was found to be 60%; in test [3] it was 94%; in test [4] it was 95%. For the same molecule, the values for the EC50 in test [2], in test [5] and in test [6] were 53 µM, 137 µM and 11 µM, respectively.
